In publication doi:10.1101/2021.04.08.439011v1 (biorxiv, 2021):

Tests used:
Conditions in all cases: 1 µM; binder
BMPR1B = BMPR1B (Homo sapiens, UniProt O00238)
CDK2 = CDK2 (Homo sapiens, UniProt P24941)
DLK = DLK (Homo sapiens, UniProt Q12852)
FER = FER (Homo sapiens, UniProt P16591)
FLT3 = target: T1, FLT3 (Homo sapiens, UniProt P36888)
T1 sequence (P36888 1-993): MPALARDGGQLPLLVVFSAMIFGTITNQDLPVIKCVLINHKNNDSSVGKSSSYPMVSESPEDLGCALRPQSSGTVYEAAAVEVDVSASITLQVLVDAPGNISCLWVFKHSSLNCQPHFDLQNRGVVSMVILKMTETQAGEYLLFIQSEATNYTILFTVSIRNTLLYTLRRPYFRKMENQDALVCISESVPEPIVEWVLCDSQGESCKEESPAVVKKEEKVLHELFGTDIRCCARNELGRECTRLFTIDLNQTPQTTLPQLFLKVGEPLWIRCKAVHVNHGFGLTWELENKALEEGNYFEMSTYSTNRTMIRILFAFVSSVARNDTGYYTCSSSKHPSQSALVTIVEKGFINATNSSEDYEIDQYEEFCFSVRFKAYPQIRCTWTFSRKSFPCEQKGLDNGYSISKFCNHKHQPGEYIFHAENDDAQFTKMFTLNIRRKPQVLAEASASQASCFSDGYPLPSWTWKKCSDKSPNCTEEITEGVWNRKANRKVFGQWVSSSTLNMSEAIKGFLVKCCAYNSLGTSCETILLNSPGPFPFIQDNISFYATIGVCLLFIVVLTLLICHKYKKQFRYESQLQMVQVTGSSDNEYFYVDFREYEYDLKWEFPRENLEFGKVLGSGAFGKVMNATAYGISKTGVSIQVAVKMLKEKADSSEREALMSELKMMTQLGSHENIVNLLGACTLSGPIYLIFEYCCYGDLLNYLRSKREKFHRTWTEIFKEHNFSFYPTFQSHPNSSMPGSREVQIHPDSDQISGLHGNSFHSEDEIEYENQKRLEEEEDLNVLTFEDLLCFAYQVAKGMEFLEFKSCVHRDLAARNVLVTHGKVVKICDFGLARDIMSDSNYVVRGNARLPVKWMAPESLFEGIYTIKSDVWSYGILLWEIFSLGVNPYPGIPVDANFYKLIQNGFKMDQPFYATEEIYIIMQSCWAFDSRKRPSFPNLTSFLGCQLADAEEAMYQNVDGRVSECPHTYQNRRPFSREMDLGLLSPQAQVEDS

FRK = FRK (Homo sapiens, UniProt P42685)
GAK = GAK (Homo sapiens, UniProt O14976)
HCK = HCK (Homo sapiens, UniProt P08631)
HIPK1 = HIPK1 (Homo sapiens, UniProt Q86Z02)
IKK-alpha = IKK-alpha (Homo sapiens, UniProt O15111)
MERTK = MERTK (Homo sapiens, UniProt Q12866)
MLK1 = MLK1 (Homo sapiens, UniProt P80192)
NIM1 = NIM1 (Homo sapiens, UniProt Q8IY84)
PKMYT1 = PKMYT1 (Homo sapiens, UniProt Q99640)
PLK2 = PLK2 (Homo sapiens, UniProt Q9NYY3)
PNCK = PNCK (Homo sapiens, UniProt Q6P2M8)
PRKCQ = PRKCQ (Homo sapiens, UniProt Q04759)
SNRK = SNRK (Homo sapiens, UniProt Q9NRH2)
SRC = SRC (Homo sapiens, UniProt P12931)
TAOK3 = TAOK3 (Homo sapiens, UniProt Q9H2K8)
TSSK3 = TSSK3 (Homo sapiens, UniProt Q96PN8)
WNK3 = WNK3 (Homo sapiens, UniProt Q9BYP7)

MERTK, sequence (Q12866 whole entry): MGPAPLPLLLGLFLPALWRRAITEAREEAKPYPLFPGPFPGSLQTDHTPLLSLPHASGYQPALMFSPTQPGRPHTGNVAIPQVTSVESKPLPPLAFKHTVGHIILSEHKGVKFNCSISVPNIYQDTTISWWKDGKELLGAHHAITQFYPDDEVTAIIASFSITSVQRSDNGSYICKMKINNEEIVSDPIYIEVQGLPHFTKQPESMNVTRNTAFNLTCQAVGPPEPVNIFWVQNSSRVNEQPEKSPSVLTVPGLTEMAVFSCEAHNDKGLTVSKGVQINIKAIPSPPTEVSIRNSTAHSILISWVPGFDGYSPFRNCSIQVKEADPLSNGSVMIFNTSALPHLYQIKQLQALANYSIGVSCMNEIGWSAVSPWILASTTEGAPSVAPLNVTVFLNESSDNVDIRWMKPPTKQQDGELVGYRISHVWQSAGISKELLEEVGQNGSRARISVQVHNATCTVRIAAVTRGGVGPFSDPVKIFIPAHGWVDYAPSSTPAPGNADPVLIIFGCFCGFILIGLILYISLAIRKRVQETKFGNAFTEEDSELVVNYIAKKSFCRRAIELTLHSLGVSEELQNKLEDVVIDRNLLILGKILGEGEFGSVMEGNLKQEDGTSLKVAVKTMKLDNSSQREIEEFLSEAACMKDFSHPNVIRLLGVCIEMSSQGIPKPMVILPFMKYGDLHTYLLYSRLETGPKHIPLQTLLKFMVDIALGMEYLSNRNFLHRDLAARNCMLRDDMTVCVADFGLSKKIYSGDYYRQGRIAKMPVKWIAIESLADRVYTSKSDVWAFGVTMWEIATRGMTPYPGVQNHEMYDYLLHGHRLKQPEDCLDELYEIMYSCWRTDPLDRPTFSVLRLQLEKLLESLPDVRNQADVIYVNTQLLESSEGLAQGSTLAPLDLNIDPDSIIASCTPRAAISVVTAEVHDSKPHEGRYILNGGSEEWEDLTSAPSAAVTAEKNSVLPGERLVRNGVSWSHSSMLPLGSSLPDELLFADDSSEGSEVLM
HIPK1, sequence (Q86Z02 whole entry): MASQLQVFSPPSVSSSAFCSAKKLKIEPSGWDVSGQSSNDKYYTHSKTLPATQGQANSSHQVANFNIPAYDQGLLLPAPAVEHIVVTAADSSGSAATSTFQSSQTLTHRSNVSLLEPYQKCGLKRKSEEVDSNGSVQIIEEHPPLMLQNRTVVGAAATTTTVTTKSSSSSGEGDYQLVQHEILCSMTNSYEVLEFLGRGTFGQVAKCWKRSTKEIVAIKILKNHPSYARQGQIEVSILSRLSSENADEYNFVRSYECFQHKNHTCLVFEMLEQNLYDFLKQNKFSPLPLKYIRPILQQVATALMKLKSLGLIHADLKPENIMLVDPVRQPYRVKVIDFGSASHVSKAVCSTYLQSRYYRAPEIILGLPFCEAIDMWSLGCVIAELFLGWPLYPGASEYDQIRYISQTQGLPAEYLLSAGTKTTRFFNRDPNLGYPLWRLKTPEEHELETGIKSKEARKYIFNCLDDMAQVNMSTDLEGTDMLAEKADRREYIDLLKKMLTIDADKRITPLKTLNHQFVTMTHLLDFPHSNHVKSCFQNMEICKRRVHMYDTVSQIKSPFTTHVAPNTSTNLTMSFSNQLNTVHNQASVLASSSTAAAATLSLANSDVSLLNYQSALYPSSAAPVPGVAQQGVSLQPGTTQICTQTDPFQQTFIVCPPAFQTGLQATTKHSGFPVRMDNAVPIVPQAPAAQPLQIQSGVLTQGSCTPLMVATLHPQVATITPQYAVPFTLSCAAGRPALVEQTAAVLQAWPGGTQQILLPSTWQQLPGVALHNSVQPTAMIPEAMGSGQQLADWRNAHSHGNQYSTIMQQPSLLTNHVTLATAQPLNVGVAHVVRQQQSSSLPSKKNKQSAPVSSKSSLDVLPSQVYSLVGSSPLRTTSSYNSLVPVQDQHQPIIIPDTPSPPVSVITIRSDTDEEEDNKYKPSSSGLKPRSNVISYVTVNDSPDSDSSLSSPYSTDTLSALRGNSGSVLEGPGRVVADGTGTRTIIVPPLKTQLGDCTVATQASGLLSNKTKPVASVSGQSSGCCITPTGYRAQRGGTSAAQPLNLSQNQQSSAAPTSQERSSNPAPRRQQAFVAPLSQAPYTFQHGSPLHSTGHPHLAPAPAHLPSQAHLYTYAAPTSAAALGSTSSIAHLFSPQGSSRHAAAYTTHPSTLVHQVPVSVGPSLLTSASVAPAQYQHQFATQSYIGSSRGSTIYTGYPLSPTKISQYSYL
NIM1, sequence (Q8IY84 whole entry): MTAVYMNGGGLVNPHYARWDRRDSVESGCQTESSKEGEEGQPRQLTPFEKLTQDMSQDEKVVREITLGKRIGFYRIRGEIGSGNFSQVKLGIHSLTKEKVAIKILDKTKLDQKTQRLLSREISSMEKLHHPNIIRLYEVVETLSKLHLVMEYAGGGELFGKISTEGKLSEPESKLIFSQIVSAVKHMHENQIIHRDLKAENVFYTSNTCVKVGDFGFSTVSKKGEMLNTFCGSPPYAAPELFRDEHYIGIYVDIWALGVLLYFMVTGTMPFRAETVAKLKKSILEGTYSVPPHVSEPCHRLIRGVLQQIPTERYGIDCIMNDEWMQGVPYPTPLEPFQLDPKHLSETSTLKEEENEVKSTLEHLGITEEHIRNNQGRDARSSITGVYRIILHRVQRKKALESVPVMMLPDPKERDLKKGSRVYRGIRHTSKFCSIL
PRKCQ, sequence (Q04759 whole entry): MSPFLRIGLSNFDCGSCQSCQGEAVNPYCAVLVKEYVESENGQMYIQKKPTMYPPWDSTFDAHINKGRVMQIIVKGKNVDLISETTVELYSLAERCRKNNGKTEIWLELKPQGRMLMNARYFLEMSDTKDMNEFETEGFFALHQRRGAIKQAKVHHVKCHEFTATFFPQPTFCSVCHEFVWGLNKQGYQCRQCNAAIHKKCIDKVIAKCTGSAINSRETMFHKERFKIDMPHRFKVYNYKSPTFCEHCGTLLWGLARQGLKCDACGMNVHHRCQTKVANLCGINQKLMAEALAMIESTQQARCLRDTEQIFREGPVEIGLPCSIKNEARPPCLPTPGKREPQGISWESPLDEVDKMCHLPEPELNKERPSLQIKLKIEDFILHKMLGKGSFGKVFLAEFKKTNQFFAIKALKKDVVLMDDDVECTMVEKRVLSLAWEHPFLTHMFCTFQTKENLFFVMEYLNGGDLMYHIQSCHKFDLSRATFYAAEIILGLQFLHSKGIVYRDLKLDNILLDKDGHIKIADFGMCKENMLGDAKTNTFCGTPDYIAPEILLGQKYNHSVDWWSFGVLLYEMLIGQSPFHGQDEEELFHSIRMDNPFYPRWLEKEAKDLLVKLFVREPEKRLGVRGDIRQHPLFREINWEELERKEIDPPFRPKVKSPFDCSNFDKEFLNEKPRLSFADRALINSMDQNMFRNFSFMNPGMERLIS
SNRK, sequence (Q9NRH2 whole entry): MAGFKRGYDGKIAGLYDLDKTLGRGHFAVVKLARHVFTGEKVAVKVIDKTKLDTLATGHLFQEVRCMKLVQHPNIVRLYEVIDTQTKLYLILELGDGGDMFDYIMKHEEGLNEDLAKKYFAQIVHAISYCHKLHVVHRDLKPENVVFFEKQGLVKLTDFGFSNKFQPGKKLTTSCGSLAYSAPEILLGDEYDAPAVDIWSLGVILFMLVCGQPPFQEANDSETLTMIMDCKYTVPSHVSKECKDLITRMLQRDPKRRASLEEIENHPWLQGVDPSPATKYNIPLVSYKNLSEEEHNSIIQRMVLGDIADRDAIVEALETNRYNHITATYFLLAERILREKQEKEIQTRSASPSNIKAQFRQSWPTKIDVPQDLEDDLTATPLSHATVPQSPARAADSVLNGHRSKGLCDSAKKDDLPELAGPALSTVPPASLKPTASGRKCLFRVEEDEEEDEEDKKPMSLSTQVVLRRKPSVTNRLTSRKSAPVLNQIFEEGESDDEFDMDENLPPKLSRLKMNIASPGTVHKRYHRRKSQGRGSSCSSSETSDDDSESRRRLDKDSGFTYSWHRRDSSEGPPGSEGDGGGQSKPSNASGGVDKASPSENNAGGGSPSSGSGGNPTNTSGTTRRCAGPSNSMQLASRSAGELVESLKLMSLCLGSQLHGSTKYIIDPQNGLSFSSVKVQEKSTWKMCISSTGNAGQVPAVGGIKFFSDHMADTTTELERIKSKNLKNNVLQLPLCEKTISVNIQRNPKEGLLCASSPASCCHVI
IKK-alpha, sequence (O15111 whole entry): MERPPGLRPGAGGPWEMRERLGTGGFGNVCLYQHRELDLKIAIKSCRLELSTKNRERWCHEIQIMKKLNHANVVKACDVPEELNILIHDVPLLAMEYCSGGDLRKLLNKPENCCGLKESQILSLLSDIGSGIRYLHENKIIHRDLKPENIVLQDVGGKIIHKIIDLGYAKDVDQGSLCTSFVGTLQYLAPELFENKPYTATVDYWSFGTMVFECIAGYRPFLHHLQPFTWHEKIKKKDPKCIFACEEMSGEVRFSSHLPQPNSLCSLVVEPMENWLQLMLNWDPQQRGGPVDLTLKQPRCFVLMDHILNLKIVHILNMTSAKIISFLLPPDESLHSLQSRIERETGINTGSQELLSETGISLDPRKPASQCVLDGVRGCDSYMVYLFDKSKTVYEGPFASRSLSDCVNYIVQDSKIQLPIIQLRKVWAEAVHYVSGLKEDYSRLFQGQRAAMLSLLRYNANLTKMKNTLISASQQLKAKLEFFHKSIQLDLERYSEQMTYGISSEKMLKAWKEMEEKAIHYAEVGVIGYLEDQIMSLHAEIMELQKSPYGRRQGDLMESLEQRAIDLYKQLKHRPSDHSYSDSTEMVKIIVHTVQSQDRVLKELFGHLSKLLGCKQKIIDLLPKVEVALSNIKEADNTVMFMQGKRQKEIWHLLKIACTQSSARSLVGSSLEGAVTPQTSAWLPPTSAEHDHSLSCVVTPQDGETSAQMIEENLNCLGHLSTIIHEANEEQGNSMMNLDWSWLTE

Structure (SMILES): CNc1ncc2cc(-c3ccc(-c4cccc(C)n4)cc3Cl)c(=O)n(C[C@H]3OC[C@H](N)CO3)c2n1 [compound 6, G-5555]
- Percent Control (BMPR1B): 96%
- Percent Control (CDK2): 100%
- Percent Control (DLK): 100%
- Percent Control (FER): 100%
- Percent Control (FLT3): 100%
- Percent Control (FRK): 71%
- Percent Control (GAK): 1.7%
- Percent Control (HCK): 100%
- Percent Control (HIPK1): 100%
- Percent Control (IKK-alpha): 98%
- Percent Control (MERTK): 100%
- Percent Control (MLK1): 96%
- Percent Control (NIM1): 100%
- Percent Control (PKMYT1): 100%
- Percent Control (PLK2): 84%
- Percent Control (PNCK): 30%
- Percent Control (PRKCQ): 55%
- Percent Control (SNRK): 89%
- Percent Control (SRC): 100%
- Percent Control (TAOK3): 100%
- Percent Control (TSSK3): 84%
- Percent Control (WNK3): 100%
